In brackets after ≈: the same amount, converted by molar mass.
Legend:
[1] = buffer, pH 7.4
[2] = Oral bioavailability in Sprague-Dawley rat at 3 mg/kg administered via gavage measured up to 24 hrs by LC-MS analysis; format: ADME, organism-based; conditions: in vivo
[3] = Protein binding in DMEM medium containing 10% fetal calf serum by LC-MS analysis based ultracentrifugation assay; format: ADME, cell-free, Bos taurus; conditions: cattle, DMEM medium containing 10% fetal calf serum; read-out: PB (converted)
[4] = Oral bioavailability in Sprague-Dawley rat at 33 mg/kg administered via gavage measured up to 24 hrs by LC-MS analysis; format: ADME, organism-based; conditions: in vivo
[5] = Apparent half life in Swiss mouse at […], iv administered as bolus dose measured up to 24 hrs by UPLC-MS analysis; format: ADME, organism-based; conditions: in vivo
[6] = tested on: Plasmodium falciparum
[7] = Protein binding in human liver microsomes by LC-MS analysis based ultracentrifugation assay; format: ADME, Microsome; conditions: read-out: PB (converted)
[8] = biological target: T1, Cytochrome P450 2C19 (Homo sapiens, UniProt P33261); assay: Inhibition of CYP2C19 in human liver microsomes using (S)-mephenytoin as substrate measured for 10 to 30 mins in presence of NADPH regenerating system by UPLC-MS analysis; format: ADME
[9] = Cmax in Swiss mouse at 10.5 mg/kg, po via gavage measured up to 24 hrs by UPLC-MS analysis; format: ADME, organism-based; design: dose 10.5 mg/kg, route oral; conditions: in vivo
[10] = biological target: T2, Cytochrome P450 2C9 (Homo sapiens, UniProt P11712); assay: Inhibition of CYP2C9 in human liver microsomes using tolbutamide as substrate measured for 10 to 30 mins in presence of NADPH regenerating system by UPLC-MS analysis; format: ADME
[11] = biological target: T3, CYP3A4/5 (Homo sapiens, UniProt P08684+P20815); assay: in vitro; conditions: liver microsomes, probe testosterone
[12] = Cmax in Swiss mouse blood at 50 mg/kg, po via gavage measured up to 24 hrs by UPLC-MS analysis; format: ADME, organism-based; design: dose 50 mg/kg, route oral; conditions: in vivo
[13] = Clearance in Sprague-Dawley rat plasma at […], iv administered as infusion for 10 mins and measured up to 24 hrs by LC-MS analysis; format: ADME, organism-based; conditions: in vivo
[14] = Toxicity in Plasmodium falciparum 3D70087/N9 infected NOD-SCID IL2Rgamma null mouse assessed as death at 10 mg/kg, po administered once daily for 4 days measured 24 hrs post dose; format: organism-based; conditions: in vivo
[15] = tested on: L1210; assay: Cytotoxicity against mouse L1210 cells assessed as reduction in cell viability; format: cell-based
[16] = biological target: T3, CYP3A4/5; assay: in vitro; conditions: liver microsomes, probe midazolam
[17] = Apparent half life in Swiss mouse at 50 mg/kg, po via gavage measured up to 24 hrs by UPLC-MS analysis; format: ADME, organism-based; conditions: in vivo
[18] = AUC (0 to infinity) in Swiss mouse at 18.3 mg/kg, po via gavage measured up to 24 hrs by UPLC-MS analysis; format: ADME, organism-based; design: dose 18.3 mg/kg, time infinity, route oral; conditions: in vivo
[19] = biological target: Albumin (Homo sapiens, UniProt P02768); assay: Binding affinity to albumin (unknown origin) in ALBUMAX medium; format: ADME; conditions: read-out: PB (converted)
[20] = Cmax in Sprague-Dawley rat at 3 mg/kg, po administered via gavage measured up to 24 hrs by LC-MS analysis; format: ADME, organism-based; design: dose 3 mg/kg, route oral; conditions: in vivo
[21] = biological target: T4, Cytochrome P450 1A2 (Homo sapiens, UniProt P05177); assay: Inhibition of CYP1A2 in human liver microsomes using phenacetin as substrate measured for 10 to 30 mins in presence of NADPH regenerating system by UPLC-MS analysis; format: ADME
T4 sequence (P05177 whole entry): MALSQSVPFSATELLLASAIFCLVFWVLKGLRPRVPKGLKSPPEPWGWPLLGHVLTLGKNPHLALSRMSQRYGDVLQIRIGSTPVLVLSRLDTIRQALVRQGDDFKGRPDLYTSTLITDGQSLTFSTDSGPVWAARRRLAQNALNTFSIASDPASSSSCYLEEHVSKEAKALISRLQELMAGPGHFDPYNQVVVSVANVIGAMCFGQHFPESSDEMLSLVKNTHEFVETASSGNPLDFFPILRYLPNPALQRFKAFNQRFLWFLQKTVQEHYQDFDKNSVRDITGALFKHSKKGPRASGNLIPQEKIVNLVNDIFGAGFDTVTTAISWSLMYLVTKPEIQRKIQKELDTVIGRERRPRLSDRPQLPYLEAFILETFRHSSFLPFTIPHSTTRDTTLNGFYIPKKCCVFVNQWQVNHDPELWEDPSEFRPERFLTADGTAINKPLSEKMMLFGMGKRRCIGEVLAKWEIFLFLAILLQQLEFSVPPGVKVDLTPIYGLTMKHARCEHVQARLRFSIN

[22] = Apparent half life in Sprague-Dawley rat at 3 mg/kg, po administered via gavage measured up to 24 hrs by LC-MS analysis; format: ADME, organism-based; conditions: in vivo
[23] = simulated gi fluid, pH 6.5
[24] = biological target: Potassium voltage-gated channel subfamily A member 5 (Homo sapiens, UniProt P22460); assay: Inhibition of human Kv1.5 by IonWorks patch clamp electrophysiology assay
[25] = Inhibition of yeast DHODH transformed in Plasmodium falciparum D10 in presence of 10 uM proguanil; design: species or system Saccharomyces cerevisiae
[26] = physchem; conditions: octanol/water, pH 7.4
[27] = biological target: T1, Cytochrome P450 2C19; assay: Time-dependent inhibition of CYP2C19 in human liver microsomes using (S)-mephenytoin as substrate in presence of NADPH regenerating system by UPLC-MS analysis; format: ADME
[28] = Cmax in Swiss mouse at 50 mg/kg, po via gavage measured up to 24 hrs by UPLC-MS analysis; format: ADME, organism-based; design: dose 50 mg/kg, route oral; conditions: in vivo
[29] = AUC (0 to infinity) in Swiss mouse blood at 18.3 mg/kg, po via gavage measured up to 24 hrs by UPLC-MS analysis; format: ADME, organism-based; design: dose 18.3 mg/kg, route oral, time infinity; conditions: in vivo
[30] = Apparent half life in Sprague-Dawley rat at […], iv administered as infusion for 10 mins and measured up to 24 hrs by LC-MS analysis; format: ADME, organism-based; conditions: in vivo, read-out: t1/2(app) (converted)
[31] = Apparent half life in Sprague-Dawley rat at 33 mg/kg, po administered via gavage measured up to 24 hrs by LC-MS analysis; format: ADME, organism-based; conditions: in vivo
[32] = biological target: T2, Cytochrome P450 2C9; assay: Time-dependent inhibition of CYP2C9 in human liver microsomes using tolbutamide as substrate in absence of NADPH regenerating system by UPLC-MS analysis; format: ADME
[33] = Protein binding in human plasma by LC-MS analysis based ultracentrifugation assay; format: ADME, cell-free; conditions: read-out: PPB (converted)
[34] = Volume of drug distribution at steady state in Swiss mouse at […], iv administered as bolus dose measured up to 24 hrs by UPLC-MS analysis; format: ADME, organism-based; conditions: in vivo
[35] = biological target: T3, CYP3A4/5; assay: in vitro; conditions: liver microsomes, probe testosterone; remark: listed apart in the source
[36] = Protein binding in mouse plasma by LC-MS analysis based ultracentrifugation assay; format: ADME, cell-free; conditions: read-out: PPB (converted)

T1 sequence (P33261 whole entry): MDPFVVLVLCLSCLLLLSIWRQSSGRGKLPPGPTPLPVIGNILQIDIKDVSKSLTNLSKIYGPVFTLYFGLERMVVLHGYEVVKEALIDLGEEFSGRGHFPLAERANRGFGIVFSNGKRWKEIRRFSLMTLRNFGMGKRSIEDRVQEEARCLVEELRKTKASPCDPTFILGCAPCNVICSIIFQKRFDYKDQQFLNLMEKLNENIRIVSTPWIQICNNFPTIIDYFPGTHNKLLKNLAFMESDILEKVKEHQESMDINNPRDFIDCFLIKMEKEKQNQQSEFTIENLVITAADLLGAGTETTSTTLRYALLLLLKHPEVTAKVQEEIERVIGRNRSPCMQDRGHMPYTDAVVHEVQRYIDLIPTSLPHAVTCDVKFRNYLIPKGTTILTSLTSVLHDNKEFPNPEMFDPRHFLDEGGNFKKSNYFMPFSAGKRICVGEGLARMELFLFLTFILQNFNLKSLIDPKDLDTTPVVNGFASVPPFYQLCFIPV
T2 sequence (P11712 whole entry): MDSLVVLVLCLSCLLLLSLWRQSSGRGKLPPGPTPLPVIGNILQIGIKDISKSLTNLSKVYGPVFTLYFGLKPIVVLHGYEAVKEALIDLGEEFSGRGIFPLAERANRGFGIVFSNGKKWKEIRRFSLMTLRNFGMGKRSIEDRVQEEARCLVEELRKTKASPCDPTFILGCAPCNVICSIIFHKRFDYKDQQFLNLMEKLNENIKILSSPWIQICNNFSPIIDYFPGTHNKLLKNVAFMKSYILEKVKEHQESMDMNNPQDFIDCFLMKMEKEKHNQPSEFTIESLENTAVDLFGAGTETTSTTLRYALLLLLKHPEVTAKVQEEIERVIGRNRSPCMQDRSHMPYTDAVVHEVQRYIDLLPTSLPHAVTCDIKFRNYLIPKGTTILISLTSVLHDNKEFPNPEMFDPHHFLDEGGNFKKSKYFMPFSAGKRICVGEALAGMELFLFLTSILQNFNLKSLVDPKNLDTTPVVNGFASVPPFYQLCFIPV
Sequence of Albumin (P02768 whole entry): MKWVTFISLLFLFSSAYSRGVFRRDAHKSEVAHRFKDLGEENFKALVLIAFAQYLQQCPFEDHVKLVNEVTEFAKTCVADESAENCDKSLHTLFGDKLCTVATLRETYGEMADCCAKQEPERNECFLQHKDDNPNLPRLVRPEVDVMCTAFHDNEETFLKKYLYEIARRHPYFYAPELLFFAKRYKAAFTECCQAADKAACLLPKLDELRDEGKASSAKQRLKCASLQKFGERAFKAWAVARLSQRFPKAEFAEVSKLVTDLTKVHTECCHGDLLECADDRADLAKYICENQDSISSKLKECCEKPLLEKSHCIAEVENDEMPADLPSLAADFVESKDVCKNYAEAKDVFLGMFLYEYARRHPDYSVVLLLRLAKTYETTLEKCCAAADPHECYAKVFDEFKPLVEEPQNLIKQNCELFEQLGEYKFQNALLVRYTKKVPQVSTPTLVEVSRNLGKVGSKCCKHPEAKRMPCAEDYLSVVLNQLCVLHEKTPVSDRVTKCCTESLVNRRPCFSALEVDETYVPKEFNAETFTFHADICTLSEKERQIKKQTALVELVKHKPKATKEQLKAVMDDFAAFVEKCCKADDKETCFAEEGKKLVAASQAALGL
Sequence of Potassium voltage-gated channel subfamily A member 5 (P22460 whole entry): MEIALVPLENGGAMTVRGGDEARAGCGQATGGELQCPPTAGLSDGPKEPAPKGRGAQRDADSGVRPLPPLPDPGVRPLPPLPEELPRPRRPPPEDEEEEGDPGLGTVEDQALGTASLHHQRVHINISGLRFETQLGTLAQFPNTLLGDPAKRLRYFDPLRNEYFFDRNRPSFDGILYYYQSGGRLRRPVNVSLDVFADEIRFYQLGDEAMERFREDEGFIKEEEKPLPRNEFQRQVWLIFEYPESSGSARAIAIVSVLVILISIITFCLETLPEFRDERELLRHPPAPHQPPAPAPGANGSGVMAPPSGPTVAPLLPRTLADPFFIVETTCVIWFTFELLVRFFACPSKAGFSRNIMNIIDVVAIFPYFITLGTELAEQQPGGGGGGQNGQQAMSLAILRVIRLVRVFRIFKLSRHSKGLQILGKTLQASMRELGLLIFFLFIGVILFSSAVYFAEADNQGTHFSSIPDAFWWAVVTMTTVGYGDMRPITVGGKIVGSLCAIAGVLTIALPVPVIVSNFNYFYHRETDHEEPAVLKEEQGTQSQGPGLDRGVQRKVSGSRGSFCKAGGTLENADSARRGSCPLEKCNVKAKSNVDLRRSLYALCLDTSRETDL

Q: For `Cc1c(Cc2ccc(C(F)(F)F)nc2)c[nH]c1C(=O)NC1CC1`, which solubility [1] is on record?
A: The solubility was 45.6 µg/mL (≈ 141 µM).

Q: And the F [2]?
A: Its F is 91%.

Q: What about the fraction unbound [3] of the same molecule?
A: Its fraction unbound is 0.685.

Q: And the F [4]?
A: Its F is > 100%.

Q: What about the “t1/2(app)” value [5] of the same molecule?
A: Its value is 2.8 h.

Q: What about the fEC50 [6] of the same molecule?
A: Its fEC50 is 0.0077 µM.

Q: And the fraction unbound [7]?
A: The fraction unbound was 0.701.

Q: What about the IC50 [8] of the same molecule?
A: Its IC50 is > 20 µM.

Q: And the Cmax [9]?
A: Its Cmax is 4.6 µM.

Q: What about the IC50 [10] of the same molecule?
A: Its IC50 is > 20 µM.

Q: What about the IC50 [11] of the same molecule?
A: Its IC50 is > 20 µM.

Q: And the Cmax [12]?
A: Its Cmax is 33.8 µM.

Q: What about the clearance [13] of the same molecule?
A: The clearance was 28.6 mL/min/kg.

Q: What about the Activity [14] of the same molecule?
A: The Activity was “Toxic”.

Q: And the CC50 [15]?
A: Its CC50 is > 50 µM.

Q: And the IC50 [16]?
A: The IC50 was > 20 µM.

Q: What about the “t1/2(app)” value [17] of the same molecule?
A: Its value is 3.6 h.

Q: What about the AUC [18] of the same molecule?
A: The AUC was 55.6 µM·h.

Q: And the fraction unbound [19]?
A: The fraction unbound was 0.482.

Q: And the Cmax [20]?
A: Its Cmax is 1.7 µM.

Q: And the IC50 [21]?
A: Its IC50 is > 20 µM.

Q: And the “t1/2(app)” value [22]?
A: Its value is 3.9 h.

Q: What about the solubility [23] of the same molecule?
A: The solubility was 60.1 µg/mL (≈ 186 µM).

Q: What about the EC50 [24] of the same molecule?
A: The EC50 was > 11 µM.

Q: What about the EC50 [25] of the same molecule?
A: Its EC50 is > 20 µM.

Q: What about the logD [26] of the same molecule?
A: The logD was 2.8.

Q: What about the TDI [27] of the same molecule?
A: The TDI was “Not Active”.

Q: What about the Cmax [28] of the same molecule?
A: Its Cmax is 42.3 µM.

Q: What about the AUC [29] of the same molecule?
A: Its AUC is 44.5 µM·h.

Q: And the half-life [30]?
A: The half-life was 14.6 h.

Q: And the “t1/2(app)” value [31]?
A: Its value is 2.8 h.

Q: What about the TDI [32] of the same molecule?
A: Its TDI is “Not Active”.

Q: What about the fraction unbound [33] of the same molecule?
A: Its fraction unbound is 0.1.

Q: And the Vdss [34]?
A: Its Vdss is 1.2 L/kg.

Q: What about the IC50 [35] of the same molecule?
A: Its IC50 is 5.5 µM.

Q: And the fraction unbound [36]?
A: Its fraction unbound is 0.111.

— ChEMBL document CHEMBL4602703, “Lead Optimization of a Pyrrole-Based Dihydroorotate Dehydrogenase Inhibitor Series for the Treatment of Malaria” (J Med Chem, 2020)
